According to PMC10451632, “Site Mutation Improves the Expression and Antimicrobial Properties of Fungal Defense” (Antibiotics, 2023):
Values after ≈ are worked out from the molar mass of the structure shown. Where two headings read alike, the source gives them in different places. Marks after values point to notes of the source that are not given here.

Assays:
S. aureus CVCC 546 = settings: data cited from previous results; cited from earlier work
Source text: (§1) Table 6 Antibacterial spectrum (MIC). | column: MIC (μg/mL) / Plectasin

[1] = tested on: Escherichia coli CVCC 195; settings: data cited from previous results; cited from earlier work
Source text: as §1

E. coli O157 = settings: data cited from previous results; cited from earlier work
Source text: as §1

[2] = tested on: Streptococcus. suis CVCC 606; settings: data cited from previous results; cited from earlier work
Source text: as §1

S. pullorum CVCC 1789 = settings: data cited from previous results; cited from earlier work
Source text: as §1

P. aeruginosa CICC 21630 = settings: data cited from previous results; cited from earlier work
Source text: as §1

S. aureus E48 = settings: data cited from previous results; cited from earlier work
Source text: as §1

[3] = tested on: Staphylococcus aureus ATCC 43300; settings: data cited from previous results; cited from earlier work
Source text: as §1

S. aureus ATCC 43300 [4] = experiment: Time-killing curves; assay type: cell-based, Staphylococcus aureus
Procedure: S. aureus ATCC 43300 was cultured to the logarithmic stage, MHB medium was used for adjusting the concentration of bacterial suspension, and PN7 (1×, 2× and 4× MIC), Plectasin (1×, 2× and 4× MIC) and 2× MIC vancomycin (the MIC was 1 μg/mL) were added into the suspensions containing 10^5 CFU/mL bacteria (after the count of viable bacteria detection, the initial inoculation amount was 5.15 Log10 CFU/mL), cultured at 37 °C and 250 rpm. A 100 CFU/mL is considered the detection limit. […] In contrast, the count was reduced by 1.6 Log10 CFU/mL after treatment with 2× MIC vancomycin, an approximately 66% population decrease of target pathogens compared with the PN7 treatment group at the same time point of the second hour. After 4 h, the colony number of the peptide treatment group was almost 0, while that of the vancomycin treatment group was 0 after 8 h, at 4 h later than the PN7 treatment. At 24 h, the number of colonies of only 1× MIC Plectasin treatment group rebounded, while no such phenomenon occurred in the other treatment groups.
S. aureus ATCC 43300 was cultured to the logarithmic stage. MHB medium adjusted the concentration of bacterial suspension, and PN7 (1×, 2× and 4× MIC) was added into the suspensions containing 10^5 CFU/mL bacteria, cultured at 37 °C and 250 rpm. 1×, 2×, 4× MIC Plectasin and 2× MIC vancomycin were used as positive controls, and the group treated without antibiotics was used as the blank controls. Then, 100 μL samples were taken at different time points and were continuously diluted and coated on MHA medium for colony counting. A 100 CFU/mL is considered the detection limit.

S. aureus ATCC 43300 [5] = experiment: Membrane permeability, PI staining by FACS; assay type: cell-based, Staphylococcus aureus; settings: 2× MIC, 10^8 CFU/mL, 37 °C
Procedure: Figure 8 In vitro antimicrobial analysis of PN7. (A): Time-kill curve of PN7, Plectasin, and vancomycin against S. aureus ATCC. All experiments were performed in triplicate. (B): The PAE of 1×, 2× and 4× MIC of PN7 and vancomycin against S. aureus ATCC 43300 (the MIC values of PN7 and vancomycin against S. aureus ATCC 43300 were 8 μg/mL and 1μg/mL, respectively). All experiments were performed in triplicate. (C): The morphological influence of PN7 on S. aureus ATCC 43300 was observed by SEM. (D,E): The effects of PN7 (D) and Plectasin (E)) on membrane permeability were analyzed by FACS. The logarithmic phase S. aureus ATCC 43300 cells (10^8 CFU/mL) were incubated with or without 2× MIC peptide solutions at 37 °C at different times. All experiments were performed in triplicate. Ple stands for the Plectasin treatment group, Van stands for the vancomycin treatment group, and CK stands for the untreated group. TEXT PRINTED IN THE PICTURE: (D) PN7: 34.4% (2×; 90min); 31.2% (2×; 75min); 30.4% (2×; 60min); 19.2% (2×; 45min); 16.7% (2×; 30min); 1.94% (2×; 15min) | (E) Ple: 32.0% (2×; 90min); 27.4% (2×; 75min); 25.2% (2×; 60min); 12.8% (2×; 45min); 12.0% (2×; 30min); 2.11% (2×; 15min) DOUBTS OF THE COPYIST ABOUT THIS PICTURE: Panels D and E: the picture prints no measure for the percentages, only labels such as "2×PN7-90min: 34.4%" / Panels D and E: "CK: 0.54%" is the untreated control, not a substance, and was left out
The fluorescent dye propidium iodide (PI; Solarbio, Beijing, China) was used to detect the effect of PN7 on the membrane permeability of Staphylococcus aureus. The test method refers to the descriptions in previous studies.

[6] = tested on: Staphylococcus aureus ATCC 43300; experiment: microbe, parasite or virus in culture; assay type: cell-based; settings: Staphylococcus aureus, ATCC43300; microtiter broth dilution, MHB, 10^5 CFUs/mL, 16–18 h at 37 °C; read-out: MIC
Procedure: The experimental operation of the expression of the Plectasin variant in P. pastoris in well plates, shaking flasks, and 5 L level fermentation was performed as referenced in previous studies. Candidates were identified through three different levels of screening. Firstly, a large number of transformants were screened through well plates to induce expression and determined by the inhibition zone assay (against S. aureus ATCC 43300). Secondly, the transformants with obvious inhibition zones were sequenced to obtain protein sequence information, then induced expression at the shake level. The supernatant was collected and purified to obtain the target protein; the anti-Staphylococcus aureus activity of the protein was detected by a MIC assay. Finally, the codons of candidate sequences were optimized, the expression vector was reconstructed, the optimal transformers were obtained, and the high-density cultivation was performed in a 5 L fermenter. The final agent was determined by high protein yield and good activity (Figure 2).
The MIC value of PN7 against bacteria was determined by the microtiter broth dilution method. Briefly, bacteria grown to the exponential phase were diluted into MHB; subsequently, 90 μL of bacterial suspension (10^5 CFUs/mL) was mixed with 10 μL of different concentrations of PN7 in a sterilized 96-well microtiter plate (Nunc). MIC values were recorded after incubation for 16–18 h at 37 °C based on the lowest concentrations of peptides in which no visible bacterial growth was observed.

S. aureus ATCC 43300 [7] = experiment: Post antibiotic effect (PAE); assay type: cell-based, Staphylococcus aureus; settings: triplicate
Source text: The post-antibiotic effect reflects the inhibitory effect on the growth of pathogenic bacteria after short contact with drugs, which is related to the strength of the bactericidal activity of drugs. The test method of the PAE of PN7 against S. aureus ATCC 43300 refers to the descriptions in previous studies.

Compound | MIC (S. aureus CVCC 546) | MIC [1] | MIC (E. coli O157) | MIC [2] | MIC (S. pullorum CVCC 1789) | MIC (P. aeruginosa CICC 21630) | MIC (S. aureus E48) | MIC [3] | number of colonies at 24 h (S. aureus ATCC 43300 [4]; 1× MIC, time-kill) | PI-staining percentage of cells (S. aureus ATCC 43300 [5]; 30 min) | PI-staining percentage of cells (S. aureus ATCC 43300 [5]; 60 min) | PI-staining percentage of cells (S. aureus ATCC 43300 [5]; 90 min) | reduction of bacterial counts during the first two hours (S. aureus ATCC 43300 [4]; 2× MIC, initial inoculum 5.15 Log10 CFU/mL, MHB, 37 °C, 250 rpm, triplicate) | time to kill 99% of S. aureus ATCC 43300 (S. aureus ATCC 43300 [4]; time-kill, 2× MIC) | time after which the colony number was (almost) 0 (S. aureus ATCC 43300 [4]; time-kill, detection limit 100 CFU/mL, vancomycin at 2× MIC) | MIC [6] | PAE (S. aureus ATCC 43300 [7]; 1× MIC) | PAE (S. aureus ATCC 43300 [7]; 2× MIC) | PAE (S. aureus ATCC 43300 [7]; 4× MIC)
CC[C@H](C)[C@@H]1NC(=O)[C@H](CO)NC(=O)[C@H](CCCCN)NC(=O)[C@@H]2CSSC[C@@H](C(=O)N[C@@H](Cc3ccc(O)cc3)C(=O)O)NC(=O)[C@H](CCCCN)NC(=O)[C@@H]3CSSC[C@H](NC(=O)[C@H](CCC(N)=O)NC(=O)[C@H](CCSC)NC(=O)[C@H](CC(=O)O)NC(=O)[C@H](CC(=O)O)NC(=O)[C@H](CCC(=O)O)NC(=O)[C@H](CC(=O)O)NC(=O)[C@H](Cc4c[nH]c5ccccc45)NC(=O)[C@@H]4CCCN4C(=O)CNC(=O)[C@H](CC(N)=O)NC(=O)[C@@H](NC(=O)CNC(=O)[C@H](Cc4ccccc4)NC(=O)CN)CSSC[C@H](NC(=O)[C@H](Cc4ccc(O)cc4)NC(=O)CNC(=O)CNC(=O)[C@H](CCCCN)NC(=O)[C@H](Cc4ccc(O)cc4)NC(=O)CNC(=O)[C@H](CCCCN)NC1=O)C(=O)N[C@@H](C)C(=O)N[C@@H](CCCCN)C(=O)NCC(=O)NCC(=O)N[C@@H](Cc1ccccc1)C(=O)N[C@@H](C(C)C)C(=O)N3)C(=O)N[C@@H](Cc1c[nH]cn1)C(=O)N[C@@H](CC(N)=O)C(=O)N[C@@H](Cc1c[nH]cn1)C(=O)N2 [Plectasin] | 16 ^a μg/mL | >128 ^a μg/mL | >128 ^a μg/mL | 1 ^a μg/mL | >128 ^a μg/mL | >128 ^a μg/mL | 4 ^a μg/mL | 4 ^a μg/mL | rebounded | 12.0% | 25.2% | 32.0% | – | – | – | – | – | – | –
CN[C@H](CC(C)C)C(=O)N[C@H]1C(=O)N[C@@H](CC(N)=O)C(=O)N[C@H]2C(=O)N[C@H]3C(=O)N[C@H](C(=O)N[C@H](C(=O)O)c4cc(O)cc(O)c4-c4cc3ccc4O)[C@H](O)c3ccc(c(Cl)c3)Oc3cc2cc(c3O[C@@H]2O[C@H](CO)[C@@H](O)[C@H](O)[C@H]2O[C@H]2C[C@](C)(N)[C@H](O)[C@H](C)O2)Oc2ccc(cc2Cl)[C@H]1O [vancomycin, reference compound] | – | – | – | – | – | – | – | – | – | – | – | – | 1.6 Log10 CFU/mL | 8 h | 8 h | 1 µg/mL (≈ 0.69 µM) | 0.11 h | 0.54 h | 0.78 h
